Results taken from US8188078B2 (Sanofi-Aventis, priority 2007, dated 2012).

target: T1, c-MET (Homo sapiens, UniProt P08581); assay: Test A: HTRF Met test in 96-well format; format: biochemical
T1 construct: The recombinant DNA His-Tev-MET (956-1390) in pFastBac(Invitrogen); His (N, cleaved yes); Tev (TEV protease site) (N, cleaved yes); made in house; host or cells: SF21 insect cells (baculovirus, pFastBac)
In short: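 The kinase was the Sf21-expressed MET cytoplasmic domain (956–1390), His tag removed, used at 5 nM with compound (0.17 nM–10 µM, 3% DMSO) in 10 mM MOPS pH 7.4. Poly-GAT 1 µg/ml, 10 µM ATP and 5 mM MgCl2 reacted 10 min at RT. After an EDTA stop, phosphotyrosine was detected by HTRF (665/620 ratio).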

T1 sequence (P08581 956-1390): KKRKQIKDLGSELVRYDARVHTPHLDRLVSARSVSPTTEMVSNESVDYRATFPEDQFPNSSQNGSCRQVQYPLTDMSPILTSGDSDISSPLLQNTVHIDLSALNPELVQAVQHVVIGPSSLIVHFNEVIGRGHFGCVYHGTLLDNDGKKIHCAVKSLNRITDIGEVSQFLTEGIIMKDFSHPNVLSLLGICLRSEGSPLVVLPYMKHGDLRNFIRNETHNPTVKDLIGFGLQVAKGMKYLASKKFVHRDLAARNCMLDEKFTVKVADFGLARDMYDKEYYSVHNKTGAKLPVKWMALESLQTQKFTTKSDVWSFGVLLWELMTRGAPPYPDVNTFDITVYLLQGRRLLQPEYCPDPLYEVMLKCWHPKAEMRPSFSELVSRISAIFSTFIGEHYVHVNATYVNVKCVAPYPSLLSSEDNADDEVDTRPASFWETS

| Compound | IC50 |
| --- | --- |
| CC(Oc1cc2sc(NC(=O)NCCN3CCN(C)CC3)nc2cc1F)c1c(Cl)ccc(F)c1Cl (single isomer, unassigned) [Example 76, 1-{6-[(1R*)-1-(2,6-dichloro-3-fluorophenyl)ethoxy]-5-fluoro-1,3-benzothiazol-2-yl}-3-[2-(4-methylpiperazin-1-yl)ethyl]urea] | < 100 nM |
| CC(Oc1cc2sc(NC(=O)NCCN3CCN(C)CC3)nc2cc1F)c1c(Cl)ccc(F)c1Cl (single isomer, unassigned) [Example 77, 1-{6-[(1S*)-1-(2,6-dichloro-3-fluorophenyl)ethoxy]-5-fluoro-1,3-benzothiazol-2-yl}-3-[2-(4-methylpiperazin-1-yl)ethyl]urea] | < 100 nM |
| CC(Oc1cc2sc(NC(=O)NCCN3CCCC3)nc2cc1F)c1c(Cl)ccc(F)c1Cl (single isomer, unassigned) [Example 85, 1-{6-[(1R*)-1-(2,6-dichloro-3-fluorophenyl)ethoxy]-5-fluoro-1,3-benzothiazol-2-yl}-3-[2-(pyrrolidin-1-yl)ethyl]urea] | < 100 nM |
| CC(Oc1cc2sc(NC(=O)NCCN)nc2cc1F)c1c(Cl)ccc(F)c1Cl (single isomer, unassigned) [Example 89, 1-(2-aminoethyl)-3-{6-[(1R*)-1-(2,6-dichloro-3-fluorophenyl)ethoxy]-5-fluoro-1,3-benzothiazol-2-yl}urea] | < 100 nM |
| CC(Oc1cc2[nH]c(NC(=O)NCCN3CCOCC3)nc2cc1F)c1c(Cl)ccc(F)c1Cl (stereo not shown) [Example 6, 1-{6-[1-(2,6-dichloro-3-fluorophenyl)ethoxy]-5-fluoro-1H-benzimidazol-2-yl}-3-(2-morpholin-4-ylethyl)urea] | < 100 nM |
| O=C(Nc1nc2ccc(OCc3c(Cl)cccc3Cl)cc2[nH]1)C1CC1 [Example 7, N-{6-[(2,6-dichlorobenzyl)oxy]-1H-benzimidazol-2-yl}cyclopropane carboxamide] | < 100 nM |
| CC(Oc1cc2sc(NC(=O)NCCN3CCN(C)CC3)nc2cc1F)c1c(Cl)ccc(F)c1Cl (stereo not shown) [Example 75, 1-{6-[1-(2,6-dichloro-3-fluorophenyl)ethoxy]-5-fluoro-1,3-benzothiazol-2-yl}-3-[2-(4-methylpiperazin-1-yl)ethyl]urea] | < 100 nM |
| CC(Oc1cc2sc(NC(=O)NCCCN3CCCC3=O)nc2cc1F)c1c(Cl)ccc(F)c1Cl (stereo not shown) [Example 78, 1-{6-[1-(2,6-dichloro-3-fluorophenyl)ethoxy]-5-fluoro-1,3-benzothiazol-2-yl}-3-[3-(2-oxopyrrolidin-1-yl)propyl]urea] | < 100 nM |
| CC(Oc1cc2sc(NC(=O)NCCC3CCCN3C)nc2cc1F)c1c(Cl)ccc(F)c1Cl (stereo not shown) [Example 79, 1-{6-[1-(2,6-dichloro-3-fluorophenyl)ethoxy]-5-fluoro-1,3-benzothiazol-2-yl}-3-[2-(1-methylpyrrolidin-2-yl)ethyl]urea] | < 100 nM |
| COCCNC(=O)Nc1nc2cc(F)c(OC(C)c3c(Cl)ccc(F)c3Cl)cc2s1 (stereo not shown) [Example 81, 1-{6-[1-(2,6-dichloro-3-fluorophenyl)ethoxy]-5-fluoro-1,3-benzothiazol-2-yl}-3-(2-methoxyethyl)urea] | < 100 nM |
| CCN(CC)CCNC(=O)Nc1nc2ccc(OC(C)c3c(Cl)ccc(F)c3Cl)cc2s1 (stereo not shown) [Example 82, 1-{6-[1-(2,6-dichloro-3-fluorophenyl)ethoxy]-1,3-benzothiazol-2-yl}-3-[2-(diethylamino)ethyl]urea] | < 100 nM |
| CCN(CC)CCCNC(=O)Nc1nc2ccc(OC(C)c3c(Cl)ccc(F)c3Cl)cc2s1 (stereo not shown) [Example 83, 1-{6-[1-(2,6-dichloro-3-fluorophenyl)ethoxy]-1,3-benzothiazol-2-yl}-3-[3-(diethylamino)propyl]urea] | < 100 nM |
| CC(Oc1cc2sc(NC(=O)NCCN3CCCC3)nc2cc1F)c1c(Cl)ccc(F)c1Cl (stereo not shown) [Example 84, 1-{6-[1-(2,6-dichloro-3-fluorophenyl)ethoxy]-5-fluoro-1,3-benzothiazol-2-yl}-3-[2-(pyrrolidin-1-yl)ethyl]urea] | < 100 nM |
| CC(Oc1cc2sc(NC(=O)NCCN)nc2cc1F)c1c(Cl)ccc(F)c1Cl (stereo not shown) [Example 88, 1-(2-aminoethyl)-3-{6-[1-(2,6-dichloro-3-fluorophenyl)ethoxy]-5-fluoro-1,3-benzothiazol-2-yl}urea] | < 100 nM |
| CC(Oc1cc2sc(NC(=O)NCCN(C)Cc3ccccc3)nc2cc1F)c1c(Cl)ccc(F)c1Cl (stereo not shown) [Example 94, 1-{2-[benzyl(methyl)amino]ethyl}-3-{6-[1-(2,6-dichloro-3-fluorophenyl)ethoxy]-5-fluoro-1,3-benzothiazol-2-yl}urea] | < 100 nM |
| CC(Oc1cc2sc(NC(=O)NCCN(C)C(=O)OC(C)(C)C)nc2cc1F)c1c(Cl)ccc(F)c1Cl (stereo not shown) [Example 95] | < 100 nM |
| CNCCNC(=O)Nc1nc2cc(F)c(OC(C)c3c(Cl)ccc(F)c3Cl)cc2s1 (stereo not shown) [Example 96, 1-{6-[1-(2,6-dichloro-3-fluorophenyl)ethoxy]-5-fluoro-1,3-benzothiazol-2-yl}-3-[2-(methylamino)ethyl]urea] | < 100 nM |
| CC(Oc1cc2sc(NC(=O)NCCOCc3ccccc3)nc2cc1F)c1c(Cl)ccc(F)c1Cl (stereo not shown) [Example 97, 1-[2-(benzyloxy)ethyl]-3-{6-[1-(2,6-dichloro-3-fluorophenyl)ethoxy]-5-fluoro-1,3-benzothiazol-2-yl}urea] | < 100 nM |
| CC(Oc1cc2sc(NC(=O)NCCO)nc2cc1F)c1c(Cl)ccc(F)c1Cl (stereo not shown) [Example 98, 1-{6-[1-(2,6-dichloro-3-fluorophenyl)ethoxy]-5-fluoro-1,3-benzothiazol-2-yl}-3-(2-hydroxyethyl)urea] | < 100 nM |
